ChEMBL document CHEMBL4680364, “Substituted Chromen-4-one Derivatives for Treating Hepatitis B Virus Infection” (ACS Med Chem Lett, 2021)

Each molecule was assayed on Hepatitis B virus (assay: Antiviral activity against HBV in human HepDE19 cells producing HBV cccDNA assessed as reduction in cccDNA production by measuring HBeAg level incubated for 24 hrs by ELISA). Conditions: HepDE19, 24 h.
Type: functional, organism-based

IC50 [µM]	Compound
0.19	COc1c(-c2cc(=O)c3cccc(Cl)c3o2)ccc(Br)c1OC1CC(C(=O)O)C1 (stereo unspecified)
0.49	Cc1ccc(-c2cc(=O)c3cccc(Cl)c3o2)cc1O[C@H]1C[C@@H](C(=O)O)C1
0.11	CCOc1cc(Br)c(OCCC(=O)O)cc1-c1cc(=O)c2cccc(Cl)c2o1
0.133	O=C(O)CCOc1cc(-c2cc(=O)c3cccc(Cl)c3o2)c(F)cc1Br
0.32	O=C(O)COc1cc(-c2cc(=O)c3cccc(Cl)c3o2)ccc1C(F)(F)F
0.19	COc1cc(OC)c(-c2cc(=O)c3cccc(Cl)c3o2)cc1OCCOC1CC(C(=O)O)C1 (stereo unspecified)
